This passage reports LC retention time results from the RepoRT retention time repository (doi:10.1021/acs.analchem.1c00972).

Common to all, as to details: stereoisomer not certain
Data set [1] is described as follows: RP, Phenomenex Synergi Polar-RP, 100 × 3 mm, 2.5 µm, 40 °C, 0.4 mL/min, estimated dead time 1.1 min; A: water + 1 mM ammonium fluoride; B: methanol + 1 mM ammonium fluoride; C: acetonitrile; D: 50% isopropanol + 50% acetone; gradient (min/%B/%C/%D) 0/5/0/0 2/5/0/0 8/95/0/0 12/80/15/0 19/25/70/0 19.5/0/25/70 21.5/0/25/70 22.5/0/25/0 23/5/0/0.
A short description of data set [2]: RP, Waters ACQUITY UPLC BEH C18, 100 × 1 mm, 1.7 µm, 50 °C, 0.3 mL/min, estimated dead time 0.17 min; A: water + 0.1% formic acid + 20 mM ammonium formate; B: methanol + 0.1% formic acid + 20 mM ammonium formate; gradient (min/%B) 0/0 15/100 21/100 22/0 30/0.
Data set [3] can be described thus: RP, Waters ACQUITY UPLC BEH C18, 100 × 1 mm, 1.7 µm, 50 °C, 0.3 mL/min, estimated dead time 0.17 min; A: water + 10 mM ammonium bicarbonate; B: 10% water + 90% methanol + 10 mM ammonium bicarbonate; gradient (min/%B) 0/0 15/100 21/100 22/0 30/0.

Structures can show the parent of a compound that is named as a salt.

With `O=C(O)C(F)(F)C(F)(F)C(F)(F)C(F)(F)C(F)(F)C(F)(F)C(F)(F)C(F)(F)C(F)(F)F` [Perfluorodecanoic acid], the LC retention time in data set [1] was 9.39 min; in data set [2] it was 15.9 min; in data set [3] it was 16.1 min.

On to `N#Cc1c(O)c(Cl)c(Cl)c(C#N)c1Cl` [Chlorothalonil-4-hydroxy], for which the values for the LC retention time in data set [1], in data set [2] and in data set [3] were 9.06 min, 12.3 min and 11.8 min, respectively.

As for `CC1=CC(=O)NS(=O)(=O)O1` [Acesulfame], the LC retention time in data set [1] is 2.11 min; in data set [2] it was 2.66 min; in data set [3], 2.41 min.

In the case of `NS(=O)(=O)c1cc2c(cc1Cl)NCNS2(=O)=O` [Hydrochlorothiazide], the values for the LC retention time in data set [1], in data set [2] and in data set [3] were 7.62 min, 5.2 min and 4.67 min, respectively.

As to `O=C(O)C(F)(F)C(F)(F)C(F)(F)C(F)(F)C(F)(F)C(F)(F)F` [Perfluoroheptanoic acid], the LC retention time is 11.3 min in data set [1], 13.8 min in data set [2] and 13.9 min in data set [3].

In the case of `O=C(O)C(F)(F)C(F)(F)C(F)(F)C(F)(F)C(F)(F)F` [Perfluorohexanoic acid], the LC retention time was 8.19 min in data set [1], 12.7 min in data set [2] and 12.7 min in data set [3].

In the case of `CCCCCCCCCCOS(=O)(=O)O` [Decyl sulfate], the LC retention time in data set [1] is 9.26 min; in data set [2], 14.8 min; in data set [3], 15.1 min.

In the case of `O=[N+]([O-])c1ccc(O)cc1` [4-Nitrophenol], the LC retention time is 9.25 min in data set [1], 9.08 min in data set [2] and 3.3 min in data set [3].

`CCOC(=O)c1ccc(O)cc1` [Ethylparaben]: the LC retention time was 9.81 min in data set [1], 11.6 min in data set [2] and 11.1 min in data set [3].

Take `CCC(C)C(=O)OC1CC(O)C=C2C=CC(C)C(CCC(O)CC(O)CC(=O)O)C21` (stereo not drawn) [Pravastatin]: the LC retention time in data set [1] was 9.42 min; in data set [2] it was 13.3 min; in data set [3] it was 12.1 min.

As for `CC(C)N1C(=O)c2ccccc2NS1(=O)=O` [Bentazone], the LC retention time in data set [1] is 7.2 min; in data set [2], 11.5 min; in data set [3] it was 7.66 min.
